Literature values in US20170106110A1, “ALLERGEN REDUCING COMPOSITION, SPRAY AGENT INCLUDING THE SAME AND SURFACE TREATMENT AGENT INCLUDING THE SAME, ALLERGEN REDUCING METHOD, ALLERGEN REDUCING TEXTILE STRUCTURE AND ALLERGEN REDUCING ARCHITECTURAL INTERIOR MATERIAL” (SC ENVIRONMENTAL SCIENCE CO., LTD., priority 2014, published 2017).

Details: rat

## zinc gluconate
  value of acute oral toxicity: exceeds 5,000 mg/kg
